This test relates to human G6PC promoter luciferase reporter in H4IIE rat hepatoma cells. Description: H4IIE G6P-Luc reporter assay (luciferase under control of the G6PC promoter, clone C17-2). The test is classed as cell-based. To be noted: for Geometric mean of measured relative potency: pre-qualification study. An excerpt:
The H4IIE G6P-Luc C17-2 stable cell line was generated by stably expressing Luciferase reporter gene under the control of G6PC promoter via lentivirus technology. Briefly, the human G6PC promoter −1227/+57 sequence (SEQ ID NO: 1) was synthesized and subcloned into pLenti-NFAT-Luc vector to replace NFAT promoter. Lentivirus was generated comprising the construct and H4IIE parental cells were transduced with the lentivirus and screened with the selection antibiotic Hygromycin B. The resulting stable pool cells were validated by quantitative polymerase chain reaction (qPCR) and luciferase assay. The initial work of generating a H4IIE G6P-Luc stable cell line was outsourced to GenScript, Piscataway, N.J. USA. The stable cell pool was re-cloned in-house with limiting dilutions to identify additional clones. H4IIE_G6P-Luc C17-2 is a single clone stable cell line selected for its high assay window (difference in fluorescence detected in a sample containing 1 nM insulin versus fluorescence detected in a sample containing no insulin) and fast growth rate.
The H4IIE_G6P-Luc_C17-2 cells were cultured in Dulbecco's Modified Eagle's medium (DMEM), supplemented with 10% fetal bovine serum (FBS), 1× penicillin-streptomycin, and 0.3 mg/mL Hygromycin B. […] 25 μL insulin titration was aliquoted into the wells of a solid white 96-well tissue-culture treated assay plate. […] Afterwards, […] of ONE-GLO luciferase regent was added to the assay plate. After 10 minutes incubation at room temperature, luminescence signal was read on the EnVision plate reader (Perkin Elmer, Waltham, Mass. USA).
For orientation: In a reporter assay the amount or activity of a reporter protein is the signal.

For the substance Insulin glargine, the “inhibition of luciferase reporter expression” value reads like this: (clone C17-2, 7-hour treatment (FIG. 2A)) “mild inhibition”; (clone C17-2, overnight treatment (17-hours) (FIG. 2A)) “robust inhibition”. Moreover, the “inhibition of luciferase expression” value (clone C17-2, lower amounts of FBS in assay medium (FIG. 2C)) is “Less inhibition of luciferase expression”. For the setting “clone C17-2 after 29 cell passages (P29) (FIG. 2D)”, the dose response curve result is “well-formed dose response curve”. In addition, the “Geometric mean of measured relative potency” value was determined as 51 (target relative potency 50% of reference material, N=12); 68 (target relative potency 71% of reference material, N=12); 103 (target relative potency 100% of reference material, N=24); 132 (target relative potency 141% of reference material, N=12); 196 (target relative potency 200% of reference material, N=12).

Consider “recombinant human insulin: NOVOLIN (recombinant human insulin) purchased from Novo Nordisk”, for which, where the note is “top two clones (C17, C58), overnight treatment compared with seven-hour treatment (FIG. 1C)”, the “inhibition of luciferase reporter expression” value was “significantly better inhibition”.

For the origin of these results see patent US20220026414A1, “CELL-BASED BIOIDENTITY TEST FOR INSULIN” (Merck Sharp & Dohme Corp., priority 2018, published 2022).
